Our source for the IC90 values is patent publication US11390604B2 (Hoffmann-La Roche Inc., priority 2019, dated 2022).

Counter-ions that a name gives are not always drawn. Like-named read-outs stand apart in the source and are kept apart here.

The experiment deals with Acinetobacter baumannii ATCC 17961. Nature of the experiment: Antimicrobial susceptibility testing: 90% growth inhibitory concentration (IC90) determination. The class given is cell-based. An outline of the steps: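 Growth was followed kinetically by OD600 at 20-min intervals for 16 h at 35±2 °C, with ~5×10^5 CFU/ml in Iso-Sensitest broth. Compounds were tested as twofold dilutions (e.g. 50–0.097 μM final). The concentration giving 90% inhibition of log-phase growth was reported.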

[1] abbreviates: ATCC17961, Acinetobacter baumannii ATCC 17961, Iso-Sensitest broth, read-out: ATCC 17961 IC90.

For `Cn1c(-c2cn(C3CC3(F)F)nc2C(F)(F)F)cnc1C(=O)Nc1ccc(C(=O)N[C@H]2[C@@H]3CN(C(=O)N[C@H]4CNC[C@@H]4O)C[C@@H]32)c(Cl)c1` (mixture of isomers) [Example 381, exo-6-(2-chloro-4-(5-(1-(2,2-difluorocyclopropyl)-3-(trifluoromethyl)-1H-pyrazol-4-yl)-1-methyl-1H-imidazole-2-carboxamido)benzamido)-N-((3S,4S)-4-hydroxypyrrolidin-3-yl)-3-azabicyclo[3.1.0]hexane-3-carboxamide formate], the IC90 under setting [1] turned out to be 0.123 µM.

`C#CCn1cc(-c2cnc(C(=O)Nc3ccc(C(=O)N4CCN(C(=O)N[C@H]5CCNC5)CC4)c(Cl)c3)n2C)c(C(F)(F)F)n1` [Example 53, (S)-4-(2-chloro-4-(1-methyl-5-[1-(prop-2-yn-1-yl)-3-(trifluoromethyl)-1H-pyrazol-4-yl)-1H-imidazole-2-carboxamido)benzoyl)-N-(pyrrolidin-3-yl)piperazine-1-carboxamide hydrochloride]: under setting [1], the IC90 is 0.161 µM.

Consider `Cn1c(-c2cn(C3CC3(F)F)nc2C(F)(F)F)cnc1C(=O)Nc1ccc(C(=O)NC2[C@H]3CN(C(=O)NC(CN)CCl)C[C@@H]23)c(Cl)c1` (stereo partly drawn) [Example 248, cis-N-(1-amino-3-chloropropan-2-yl)-6-[[2-chloro-4-[[5-[1-(2,2-difluorocyclopropyl)-3-(trifluoromethyl)pyrazol-4-yl]-1-methylimidazole-2-carbonyl]amino]benzoyl]amino]-3-azabicyclo[3.1.0]hexane-3-carboxamide, formate salt], for which the concentration for an effect of 90% (IC90) under setting [1] worked out at 0.297 µM.

On to `Cn1c(-c2cn(C3CC3)nc2C(F)(F)F)cnc1C(=O)Nc1ccc(C(=O)N2CCN(C(=O)[C@@H]3CC[C@@H](N)C3)CC2)c(Cl)c1` [Example 230, N-(4-(4-((1R,3R)-3-aminocyclopentane-1-carbonyl)piperazine-1-carbonyl)-3-chlorophenyl)-5-(1-cyclopropyl-3-(trifluoromethyl)-1H-pyrazol-4-yl)-1-methyl-1H-imidazole-2-carboxamide hydrochloride], for which the IC90 under setting [1] is 0.266 µM.

For the compound `CCc1cc(NC(=O)c2ncc(-c3cn(CC#N)nc3C(F)(F)F)n2C)ccc1C(=O)N1CCN(C(=O)N2CCNC(C)C2)CC1` (centres unmarked) [Example 135, 5-[1-(cyanomethyl)-3-(trifluoromethyl)pyrazol-4-yl]-N-[3-ethyl-4-[4-(3-methylpiperazine-1-carbonyl)piperazine-1-carbonyl]phenyl]-1-methylimidazole-2-carboxamide;formic acid], the IC90 under setting [1] is 0.885 µM.

`Cn1c(-c2c[nH]nc2C(F)(F)F)cnc1C(=O)Nc1ccc(C(=O)N2CCNCC2)c(Cl)c1` [Example 35, N-[3-chloro-4-(piperazine-1-carbonyl)phenyl]-1-methyl-5-[3-(trifluoromethyl)-1H-pyrazol-4-yl]imidazole-2-carboxamide hydrochloride]: the IC90 (Acinetobacter baumannii, ATCC17961, read-out: ATCC 17961 IC90, Acinetobacter baumannii ATCC 17961, Iso-Sensitest broth) was 3.7 µM.

For the compound `Cn1c(-c2cn(CC#N)nc2C(F)(F)F)cnc1C(=O)Nc1ccc(C(=O)N2CCN(C(=O)[C@H]3C[C@@H](N)C3)CC2)c(Cl)c1` [Example 73, N-[4-[4-(3-aminocyclobutanecarbonyl)piperazine-1-carbonyl]-3-chlorophenyl]-5-[1-(cyanomethyl)-3-(trifluoromethyl)pyrazol-4-yl]-1-methylimidazole-2-carboxamide;2,2,2-trifluoroacetic acid], under setting [1], the IC90 was 2.55 µM.

As to `Cn1c(-c2cn(C3CC3)nc2C(F)(F)F)cnc1C(=O)Nc1ccc(C(=O)N2CCN(C(=O)[C@H]3CCN3)CC2)c(Cl)c1` [Example 348, (R)-N-(4-(4-(azetidine-2-carbonyl)piperazine-1-carbonyl)-3-chlorophenyl)-5-(1-cyclopropyl-3-(trifluoromethyl)-1H-pyrazol-4-yl)-1-methyl-1H-imidazole-2-carboxamide hydrochloride], the IC90 under setting [1] is 0.447 µM.

Broadly, the IC90 is the point of the concentration-response curve where the effect stands at 90%.
